# Measurements from the supplement of paper PMC10307832.
# Tests used:
# Experiment in all cases: relative viability (nuclei count vs DMSO), 5 days (fraction); higher = more cells survive
# JZL-184 + Lapatinib = compound: C1CN(CCC1C(C2=CC3=C(C=C2)OCO3)(C4=CC5=C(C=C4)OCO5)O)C(=O)OC6=CC=C(C=C6)[N+](=O)[O-] [JZL-184] + CS(=O)(=O)CCNCc1ccc(-c2ccc3ncnc(Nc4ccc(OCc5cccc(F)c5)c(Cl)c4)c3c2)o1 [Lapatinib] (partner 2 µM)
# How it was run: (§1)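 Values are medians from duplicate plates. Each reflects relative viability, defined as the nuclei count of treated wells over that of vehicle wells. Lung cancer cell lines in 1536-well plates were pin-tool dosed one day after seeding with one drug alone or with a fixed anchor-drug dose plus five library-drug doses (not always all listed) in √10 steps, then fixed, stained and imaged at 4× after 5 days.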
# JZL-184 + Dasatinib = compound: C1CN(CCC1C(C2=CC3=C(C=C2)OCO3)(C4=CC5=C(C=C4)OCO5)O)C(=O)OC6=CC=C(C=C6)[N+](=O)[O-] [JZL-184] + Cc1nc(Nc2ncc(C(=O)Nc3c(C)cccc3Cl)s2)cc(N2CCN(CCO)CC2)n1 [Dasatinib] (partner 0.075 µM)
# How it was run: as §1
# JZL-184 + Phenformin = compound: C1CN(CCC1C(C2=CC3=C(C=C2)OCO3)(C4=CC5=C(C=C4)OCO5)O)C(=O)OC6=CC=C(C=C6)[N+](=O)[O-] [JZL-184] + N=C(N)NC(=N)NCCc1ccccc1 [Phenformin] (partner 250 µM)
# How it was run: as §1
# JZL-184 + AZD7762 = compound: C1CN(CCC1C(C2=CC3=C(C=C2)OCO3)(C4=CC5=C(C=C4)OCO5)O)C(=O)OC6=CC=C(C=C6)[N+](=O)[O-] [JZL-184] + NC(=O)Nc1cc(-c2cccc(F)c2)sc1C(=O)N[C@H]1CCCNC1 [AZD7762] (partner 0.2 µM)
# How it was run: as §1
# JZL-184 + Alpelisib = compound: C1CN(CCC1C(C2=CC3=C(C=C2)OCO3)(C4=CC5=C(C=C4)OCO5)O)C(=O)OC6=CC=C(C=C6)[N+](=O)[O-] [JZL-184] + Cc1nc(NC(=O)N2CCC[C@H]2C(N)=O)sc1-c1ccnc(C(C)(C)C(F)(F)F)c1 [Alpelisib] (partner 2 µM)
# How it was run: as §1
Cell Line,relative viability (JZL-184 + Lapatinib; first compound 0.04 µM),relative viability (JZL-184 + Lapatinib; first compound 0.4 µM),relative viability (JZL-184 + Lapatinib; first compound 1.265 µM),relative viability (JZL-184 + Lapatinib; first compound 4 µM),relative viability (JZL-184 + Dasatinib; first compound 0.04 µM),relative viability (JZL-184 + Dasatinib; first compound 0.4 µM),relative viability (JZL-184 + Dasatinib; first compound 1.265 µM),relative viability (JZL-184 + Dasatinib; first compound 4 µM),relative viability (JZL-184 + Phenformin; first compound 0.04 µM),relative viability (JZL-184 + Phenformin; first compound 0.4 µM),relative viability (JZL-184 + Phenformin; first compound 1.265 µM),relative viability (JZL-184 + Phenformin; first compound 4 µM),relative viability (JZL-184 + AZD7762; first compound 0.04 µM),relative viability (JZL-184 + AZD7762; first compound 0.4 µM),relative viability (JZL-184 + AZD7762; first compound 1.265 µM),relative viability (JZL-184 + AZD7762; first compound 4 µM),relative viability (JZL-184 + Alpelisib; first compound 0.04 µM),relative viability (JZL-184 + Alpelisib; first compound 0.4 µM),relative viability (JZL-184 + Alpelisib; first compound 1.265 µM),relative viability (JZL-184 + Alpelisib; first compound 4 µM)
NCI-H1975,1.08,0.824,1.02,0.888,0.427,0.356,0.347,0.31,0.414,0.411,0.395,0.397,0.723,0.664,0.804,0.583,0.751,0.673,0.642,0.577
NCI-H1993,0.767,0.807,0.827,0.885,0.498,0.617,0.709,0.674,0.428,0.476,0.487,0.47,0.704,0.725,0.885,0.803,0.719,0.72,0.711,0.677
NCI-H2085,,0.657,0.764,0.753,0.236,0.234,0.299,0.261,0.433,0.682,0.843,0.737,,0.886,1.02,1.01,0.946,0.904,0.905,0.811
NCI-H2087,1.29,0.824,0.99,1.18,0.905,0.905,0.716,0.875,0.538,0.449,0.515,0.486,1.33,1.2,1.26,1.34,1.11,1.02,1.11,1.01
NCI-H2126,0.755,0.779,0.768,0.764,0.612,0.639,0.607,0.612,0.6,0.541,0.538,0.532,1.06,1.01,1.02,0.996,0.721,0.738,0.802,0.717
NCI-H2170,0.302,0.252,0.285,0.275,0.654,0.476,0.577,0.598,0.435,0.407,0.419,0.419,0.899,0.794,0.928,0.761,0.806,0.793,0.74,0.736
NCI-H2347,1.1,0.884,0.953,0.815,0.277,0.305,0.29,0.369,0.357,0.393,0.369,0.536,,0.758,0.82,0.703,1.05,1.02,1.05,1.1
NCI-H2405,1.17,1.04,1.21,0.96,0.222,0.21,0.225,0.231,0.336,0.398,0.419,0.392,0.786,0.533,0.797,0.663,0.673,0.794,0.83,0.816
NCI-H3122,0.959,0.916,1.01,1.08,0.918,0.718,0.872,0.778,0.38,0.387,0.376,0.39,1.05,0.866,0.99,1.02,0.751,0.813,0.646,0.804
PC-3 [JPC-3],0.521,0.439,0.441,0.435,1.01,0.905,0.976,0.945,0.45,0.464,0.495,0.487,0.773,0.71,0.94,0.8,1.09,0.961,1.05,1.01
PC-14,0.39,0.316,0.325,0.327,0.293,0.271,0.287,0.255,0.756,0.473,0.72,0.504,0.391,0.337,0.387,0.321,0.975,0.892,0.965,0.847
RERF-LC-KJ,0.961,0.835,0.874,0.772,0.909,0.72,0.864,0.759,0.479,0.357,0.382,0.371,1.11,0.963,0.895,1,0.753,0.761,0.837,0.804
